Results on two molecules are retold here after US9200309B2, “Method for screening for S1P lyase inhibitors using cultured cells” (Daiichi Sankyo Company, Limited, priority 2010, dated 2015).

What all share (assay type): cell-based
Test [1] addresses T1, SPL (Mus musculus, UniProt Q8R0X7).
T1 construct: IT-79MTNC3 cells which are a mouse thymic epithelial cell line can be appropriately selected using the expression of an SPL protein as an index; host or cells: IT-79MTNC3 (mouse thymic epithelial cell line)
T1 sequence (Q8R0X7 1-568): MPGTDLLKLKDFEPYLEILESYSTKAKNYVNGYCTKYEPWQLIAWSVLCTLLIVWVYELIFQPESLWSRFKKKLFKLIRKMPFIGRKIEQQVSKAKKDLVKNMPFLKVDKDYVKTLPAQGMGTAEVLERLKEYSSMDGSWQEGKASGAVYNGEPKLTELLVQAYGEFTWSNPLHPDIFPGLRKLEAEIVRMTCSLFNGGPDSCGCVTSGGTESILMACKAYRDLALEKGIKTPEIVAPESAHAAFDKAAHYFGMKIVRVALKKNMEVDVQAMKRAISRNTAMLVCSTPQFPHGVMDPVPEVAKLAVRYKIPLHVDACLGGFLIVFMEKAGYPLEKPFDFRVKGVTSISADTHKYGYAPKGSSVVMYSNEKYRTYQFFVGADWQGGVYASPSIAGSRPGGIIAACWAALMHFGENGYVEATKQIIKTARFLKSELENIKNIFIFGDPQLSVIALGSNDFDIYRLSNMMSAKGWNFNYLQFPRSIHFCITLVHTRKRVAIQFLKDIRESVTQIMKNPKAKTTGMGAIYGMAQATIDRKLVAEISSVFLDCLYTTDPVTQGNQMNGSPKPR
Put plainly: SPA using known SPL inhibitor: accumulation of 3H-dhS1P in IT-79MTNC3 cells. The following applies: for EC50: read-out: EC50, activity of inhibiting the SPL activity. Here is the method:
A mouse thymic epithelial cell line (IT-79MTNC3 cells, The Cell Bank Division of Japan Health Sciences Foundation) was cultured using Dulbecco's Modified Eagle Medium (DMEM, Invitrogen) containing 10% fetal bovine serum (FBS) (DMEM-10% FBS) at 37° C. in the presence of 5% CO2. When the cells were used for transfection or assay, the cells were detached with 0.05% trypsin-EDTA (Invitrogen), followed by centrifugation, thereby collecting the cells. When the cells were treated with a compound or used for incorporating ^3H-dhSph, DMEM containing 0.1% bovine serum albumin (BSA, Sigma) (DMEM-0.1% BSA) or vitamin B6 group-depleted Dulbecco's Modified Eagle Medium (VB6-free DMEM, Cell Science & Technology Institute, Inc.) containing 0.1% BSA (VB6-free DMEM-0.1% BSA) was used.
In order to evaluate the activity of a test compound for accumulating ^3H-dhS1P, IT-79MTNC3 cells were suspended in DMEM-10% FBS containing 25 μM fumonisin B1, and seeded in a 96-well plate for cell culture at 1×10^4 cells/well, and then cultured at 37° C. in the presence of 5% CO2 for a whole day and night. On the next day, the culture supernatant was first removed, and then, 40 μL of DMEM-0.1% BSA (or VB6-free DMEM-0.1% BSA) containing a serially diluted test compound was added thereto, and the cells were cultured at 37° C. in the presence of 5% CO2 for 4.5 hours. Thereafter, 10 μL of DMEM-0.1% BSA (or VB6-free DMEM-0.1% BSA) containing 83 nM ^3H-dhSph and 5 μM dhSph was added thereto, and the cells were cultured at 37° C. in the presence of 5% CO2 for 30 minutes. After the culture supernatant was removed, 70 μL of a cell lysis buffer was added thereto, and the resulting mixture was left at room temperature for 2 hours. A 50 μL portion of the resulting cell lysate was mixed with SPA beads (obtained by being diluted to 8 times such that glycerol was contained at 50% in the final concentration), which were previously dispensed into a white 96-well plate at 20 μL/well. Then, the plate was covered with a transparent plate seal and left overnight at room temperature under shading. On the next day, the radioactivity thereof was measured using a microplate scintillation counter. In the case of using VB6-free DMEM, before the culture medium containing the test compound was added, washing was carried out twice with 150 μL of VB6-free DMEM-0.1% BSA, thereby preventing the carryover of the vitamin B6 group contained in DMEM used when seeding.

Test [2] concerns the target T1, SPL. Put plainly: Measurement of SPL activity in lysate of cells treated with compound. Here is the method: In order to prepare a lysate of cells treated with a test compound, IT-79MTNC3 cells were suspended in DMEM-10% FBS containing 25 μM fumonisin B1 and seeded in a 12-well plate for cell culture at 1×10^5 cells/well, and then cultured at 37° C. in the presence of 5% CO2 for a whole day and night. On the next day, the culture supernatant was first removed, and then, 500 μL of DMEM-0.1% BSA (or VB6-free DMEM-0.1% BSA) containing a serially diluted test compound was added thereto, and the cells were cultured at 37° C. in the presence of 5% CO2 for 4.5 hours. Thereafter, 55 μL of DMEM-0.1% BSA (or VB6-free DMEM-0.1% BSA) containing 10 μM dhSph was added thereto, and the cells were cultured at 37° C. in the presence of 5% CO2 for 30 minutes. After washing the IT-79MTNC3 cells with PBS, the cells were collected. Then, 150 μL of a homogenization buffer was added to the cells, and the resulting mixture was subjected to an ultrasonic treatment using a sonicator, followed by centrifugation at 4° C. for 3 minutes at 1,000 g, and the resulting supernatant was used as a cell lysate. The quantitative determination of protein by the Bradford method was carried out using a portion of the cell lysate. […]
In order to measure the SPL activity in the lysate prepared using the cells treated with the compound, the cell lysate was diluted to 1 mg protein/mL with a homogenization buffer, and the diluted solution was mixed with ^3H-dhS1P (3.4 nM) as a substrate and a reaction buffer (a 0.1 M potassium phosphate solution (pH-7.4), 25 mM NaF, 5 mM Na3VO4, 1 mM EDTA, 1 mM DTT, 0.1% Triton X-100, 2 μM cold dhS1P) to make the final volume 50 μL. […] A 30 μL portion of the resulting organic layer was taken and mixed with 5 mL of the liquid scintillator, and the radioactivity thereof was measured using a liquid scintillation counter. The obtained count was assumed to reflect the amount of degradation products by the SPL reaction, and the SPL activity of each sample was calculated as a ratio of that in the group without treatment with the compound.

Test [3] concerns the target T1, SPL. In words: Measurement of intracellular S1P by LC-MS in IT-79MTNC3 cells. Here is the method:
In order to evaluate the activity of a test compound for accumulating S1P, IT-79MTNC3 cells were suspended in DMEM-10% FBS containing 25 μM fumonisin B1, and seeded in a 24-well plate for cell culture at 5×10^4 cells/well, and then cultured at 37° C. in the presence of 5% CO2 for a whole day and night. On the next day, the culture supernatant was first removed, and then, 450 μL of DMEM-0.1% BSA (or VB6-free DMEM-0.1% BSA) containing a serially diluted test compound was added thereto, and the cells were cultured at 37° C. in the presence of 5% CO2 for 4.5 hours. Thereafter, 50 μL of DMEM-0.1% BSA (or VB6-free DMEM-0.1% BSA) containing 10 μM Sph (Enzo Life Sciences) was added thereto, and the cells were cultured at 37° C. in the presence of 5% CO2 for 30 minutes. After the culture supernatant was removed, the cells were washed with PBS and collected. Then, 150 μL of a mixed solution of acetonitrile and 1 M hydrochloric acid (acetonitrile:hydrochloric acid=4:1) was added to the cells, and the resulting mixture was subjected to an ultrasonic treatment using a sonicator. The amount of S1P was measured by LC-MS by Mitsubishi Chemical Medience Corporation. In the case of using VB6-free DMEM, before the culture medium containing the test compound was added, washing was carried out twice with 600 μL of VB6-free DMEM-0.1% BSA, thereby preventing the carryover of the vitamin B6 group contained in DMEM used when seeding.

Where [4] appears, read: in the presence of 100 nM pyridoxine.

Where two headings read alike, the source gives them in different places.

Take `Cc1ncc(CO)c(C)c1O` [DOP, 4-deoxypyridoxine]: on SPL [1] (VB6-free DMEM, FIG. 5(1)), the “effective concentration in SPA as compared with normal DMEM” value is recorded as “significantly decreased”. Besides, the EC50 (usually the concentration that produces a half-maximal response) at SPL [1] (setting [4]) worked out at 0.027 µM; on SPL [1] (in the presence of 1 μM pyridoxine) it was 1.6 µM; at SPL [1] (normal DMEM (containing about 20 μM pyridoxine)), 46 µM. Also, on SPL [1] (normal conditions (DMEM), FIG. 4(1)), the “response by SPA (accumulation of 3H-dhS1P)” value is given as “concentration-dependent response”. The “activity on SPL activity in the lysate” value on SPL [2] (VB6-free DMEM, FIG. 5(3)) was “exhibited their activity in substantially the same concentration range”; at SPL [2] (normal conditions (DMEM), FIG. 4(3)) it was “detected in substantially the same concentration range”. The “activity on amount of intracellular S1P” value at SPL [3] (VB6-free DMEM, FIG. 5(2)) is reported as “exhibited their activity in substantially the same concentration range”; at SPL [3] (normal conditions (DMEM), FIG. 4(2)), “detected in substantially the same concentration range”.

As for `CC(=O)c1nc(C(O)C(O)C(O)CO)c[nH]1` (stereo not drawn) [THI, 2-acetyl-4-tetrahydroxybutylimidazole], the “activity in SPA (accumulation of 3H-dhS1P)” value at SPL [1] (VB6-free DMEM, FIG. 5(1)) is on record as “concentration-dependent activity was detected”. Also, the “inhibitory activity against the SPL activity” value against SPL [1] (in the presence 1 μM pyridoxine) and against SPL [1] (normal DMEM) was “could not be observed” throughout. In addition, on SPL [1] (setting [4]), the EC50 is approximately 250 µM. Moreover, the “activity on SPL activity in the lysate” value at SPL [2] (VB6-free DMEM, FIG. 5(3)) is reported as “exhibited their activity in substantially the same concentration range”. Further, the “activity on amount of intracellular S1P” value on SPL [3] (VB6-free DMEM, FIG. 5(2)) is on record as “exhibited their activity in substantially the same concentration range”.
